Data reported in patent US20040176370A1, “3,4-Dihdro-N-[[1-(3-hydroxybutyl)-4-piperidinyl]methyl]-2H-[1,3]oxazino[3,2-a]indole-10-carboxamide as 5-HT(4) receptor antagonist” (SmithKline Beecham p.l.c., priority 1998, published 2004).

Tests used:
5-HT4 receptor = biological target: T1, 5-HT4 receptor (Cavia porcellus, UniProt O70528); experiment: 5-HT4 receptor antagonist activity: 5-HT-evoked contractions of guinea-pig distal colon LMMP preparations; assay type: cell-based; conditions: antagonism of 5-HT dose response curve, 45 minutes incubation
T1 construct: Longitudinal muscle-myenteric plexus (LMMP) preparations, 2-3 cm long, are obtained from the distal colon region; from tissue; host or cells: guinea-pig distal colon longitudinal muscle-myenteric plexus (LMMP)
T1 sequence (O70528 whole entry): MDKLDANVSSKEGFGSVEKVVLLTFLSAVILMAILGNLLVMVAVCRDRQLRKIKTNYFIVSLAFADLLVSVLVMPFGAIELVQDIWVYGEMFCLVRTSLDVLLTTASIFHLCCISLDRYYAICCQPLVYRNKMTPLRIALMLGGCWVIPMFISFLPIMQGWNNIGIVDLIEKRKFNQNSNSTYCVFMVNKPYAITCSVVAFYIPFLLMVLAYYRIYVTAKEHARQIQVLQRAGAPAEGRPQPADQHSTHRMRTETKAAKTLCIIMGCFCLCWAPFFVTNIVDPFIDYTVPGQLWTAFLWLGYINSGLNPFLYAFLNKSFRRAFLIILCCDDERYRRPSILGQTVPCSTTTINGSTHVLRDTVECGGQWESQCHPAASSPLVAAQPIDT
Method: 5-HT4 RECEPTOR ANTAGONIST ACTIVITY
Male Dunkin Hartley guinea-pigs, weighing 200-300 g are used. Longitudinal muscle-myenteric plexus (LMMP) preparations, 2-3 cm long, are obtained from the distal colon region. These are suspended under a 0.5 g load in isolated tissue baths containing Krebs Henseleit solution (NaCl 118 mM, KCl 4.7 mM KH2PO4 1.2 mM MgSO4 7H2O 1.2 mM, Glucose 11.1 mM, NaHCO3 25 mM, CaCl2 6H2O 2.5 mM) bubbled with 5% CO2 in O2, maintained at 37° C. and containing 1 uM Granisetron and 0.1 uM Methiothepin to block 5HT3 and 5HT1-like receptors respectively. 100 uM Pargyline is also added to the tissues at the start of the experiment. Tissues are left for 15 minutes to equilibrate and then exposed to 5-HT at 0.1 uM every 15 minutes until a uniform response is achieved. Following a half hour period for tissues to stabilise, non-cumulative dose response curves to 5-HT are constructed in all tissues. When base-lines have returned to normal, test compounds are added in the reservoirs of the tissue set-ups and washed in to the tissues. Tissues are incubated with the antagonists for 45 minutes after which a second non-cumulative dose response curve to 5-HT is constructed. […]

[1] = system: DMPP-evoked contractions (nicotinic receptor agonist); experiment: Selectivity test: cholinergically-mediated contractions of guinea-pig colon evoked by the nicotinic receptor agonist DMPP; assay type: cell-based; conditions: guinea-pig colon LMMP, dose response curve to DMPP
Method: To test for selectivity of action, compounds are tested for their ability to antagonise cholinergically-mediated contractions of the guinea-pic colon, evoked by the nicotinic receptor agonist, DMPP (1,1-dimethyl-4-phenyl-piperazinium iodide). For these experiments, tissues and equipment are set up as for the above, 5HT4 receptor experiments. After sensitization, non-cumulative dose response curves are constructed to DMPP. Test compounds are incubated with the tissues as above, and a second dose response curve to DMPP created. Results are given as mean pKB±SEM values for each antagonists.

In the case of `CC(O)CCN1CCC(CNC(=O)c2c3n(c4ccccc24)CCCO3)CC1` (racemic) [compound of formula (I), 3,4dihydro-N-[[1-(3-hydroxybutyl)-4-piperidinyl]methyl]-2H-[1,3]oxazino[3,2-α]indole-10-carboxamide], the Kb (5-HT4 receptor) is reported as 0.501 nM and the “effect on DMPP-evoked contractions” value [1] is reported as “did not significantly affect”.
